Measurements as given in patent publication US8617614B2, “Sustained release preparation for tissue regeneration therapy” (Ono Pharmaceutical Co., Ltd., priority 2006, dated 2013).

System: hippocampal CA1 region nerve cells
Experiment: Number of nerve cells in hippocampal CA1 region, rat 4-VO model (Nissl staining)
Type: in vivo
Settings: for number of hippocampal CA1 pyramidal nerve cells relative to the group given the medium (Test Group 3): rat 4-VO Test 1, day 42, s.c. twice daily, present drug 10, ornoprostil 0.1, PGE1•αCD 1.5 and 3 mg/kg

Row | Structure (SMILES) | Number of nerve cells per unit length (count/mm) Left (L) (rat 4-VO Test 1, Test Group 6: 1.5 mg/kg (as PGE1) s.c. twice daily 42 days) | number of hippocampal CA1 pyramidal nerve cells relative to the group given the medium (Test Group 3)
1 | CCCCC[C@H](O)/C=C/[C@H]1[C@H](O)CC(=O)[C@@H]1CCCCCCC(=O)O [PGE1•αCD, prostaglandin E1, reference compound] | 105.7 ± 24.0 count/mm | significant increase
2 | CCCC[C@H](C)C[C@H](O)/C=C/[C@H]1[C@H](O)CC(=O)[C@@H]1CC(=O)CCCCC(=O)OC [ornoprostil, reference compound] |  | significant increase
